Data reported in PMC3663124, “S-Adenosyl-S-carboxymethyl-L-homocysteine: a novel cofactor found in the putative tRNA-modifying enzyme CmoA” (Acta Crystallographica Section D: Biological Crystallography, 2013).

Target: T1, CmoA (Escherichia coli, UniProt P76290)
T1 construct: R100H versus P76290 (PCR mutation or strain difference); expressed in E. coli Rosetta pLysS (DE3); dimer; residues 19-247 (chain A) and 20-244 (chain B) modelled
Assay: X-ray crystal structure ([…] A); FT-MS of released ligand
Type: binding
Conditions: copurified from E. coli expression host; carboxymethyl carboxylate salt bridge to Arg199; putative active site

T1 sequence (P76290 whole entry R100H, the tested form may be a part): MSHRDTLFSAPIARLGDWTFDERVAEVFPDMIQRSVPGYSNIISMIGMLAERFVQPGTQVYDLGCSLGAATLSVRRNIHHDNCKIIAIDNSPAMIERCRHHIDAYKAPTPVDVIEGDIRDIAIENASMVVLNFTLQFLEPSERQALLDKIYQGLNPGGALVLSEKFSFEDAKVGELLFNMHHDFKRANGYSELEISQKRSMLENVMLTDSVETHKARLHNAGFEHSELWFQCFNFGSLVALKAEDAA

## Nc1ncnc2c1ncn2[C@@H]1O[C@H](C[S+](CC[C@H](N)C(=O)O)CC(=O)O)[C@@H](O)[C@H]1O (stereo partly drawn) [[(3S)-3-amino-3-carboxypropyl]{[(2S,3S,4R,5R)-5-(6-aminopurin-9-yl)-3,4-dihydroxyoxolan-2-yl]methyl}(carboxymethyl)sulfanium]
  X-ray crystal structure (1.73 A); FT-MS of released ligand: both molecules of CmoA contain the novel derivative S-adenosyl-S-carboxymethyl-L-homocysteine (SCM-SAH)
